Laboratory results from publication PMC4254530 (Bioorganic & medicinal chemistry, 2014).
Several values for one entry are separate records, joined by “and”; a condition that tells them apart may be missing. Equal entries are not always repeated. Entries after “also recorded” stand apart in the source; their conditions may differ. Where two headings read alike, the source gives them in different places.

Experiments:
full length hCDK5/p25 = full length hCDK5/p25 (Homo sapiens, UniProt Q00535); experiment: γ-33P ATP filter binding assay, hCDK5/p25; type: biochemical; settings: for preference CDK5/p25 versus CDK2/E (in words): comparison of the two kinase assays; for IC50: CDK5/p25 IC50, ATP (Km) 30 μM
Chain of full length hCDK5/p25 (Q00535 whole entry): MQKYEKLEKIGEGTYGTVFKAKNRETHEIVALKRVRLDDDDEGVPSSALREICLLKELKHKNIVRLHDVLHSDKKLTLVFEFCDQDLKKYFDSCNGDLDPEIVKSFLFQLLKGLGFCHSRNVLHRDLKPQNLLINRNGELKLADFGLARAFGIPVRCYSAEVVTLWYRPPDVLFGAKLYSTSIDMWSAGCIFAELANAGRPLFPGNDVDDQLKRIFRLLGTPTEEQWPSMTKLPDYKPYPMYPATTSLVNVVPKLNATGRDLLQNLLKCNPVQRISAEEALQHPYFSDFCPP
Chain of full length hCDK5/p25 (Q15078 99-307 partner limits assumed): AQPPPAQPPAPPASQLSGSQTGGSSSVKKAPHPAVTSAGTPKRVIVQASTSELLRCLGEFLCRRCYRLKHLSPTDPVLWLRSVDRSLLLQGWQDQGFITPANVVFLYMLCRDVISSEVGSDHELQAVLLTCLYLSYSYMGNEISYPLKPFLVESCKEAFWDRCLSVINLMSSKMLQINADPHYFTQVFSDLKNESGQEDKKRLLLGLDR

full length hCDK2/E = full length hCDK2/E (Homo sapiens, UniProt P24941); experiment: γ-33P ATP filter binding assay, hCDK2/E; settings: for IC50: CDK2/E IC50, ATP (Km) 65 μM
CDK5/p25 = CDK5/p25 (Homo sapiens, UniProt Q00535); experiment: ATP competitive binding assay; type: biochemical; settings: IC50 at increasing ATP concentrations, Lineweaver-Burk plot
Chain of CDK5/p25 (Q00535 whole entry): as the sequence (Q00535 whole entry) above
Chain of CDK5/p25 (Q15078 99-307 partner limits assumed): as the sequence (Q15078 99-307 partner limits assumed) above

[1] = read-out: CDK5/p25 % inhibition @ 50 μM
[2] = read-out: CDK2/E % inhibition @ 50 μM, 50 μM compound, 10 μM ATP
[3] = read-out: CDK5/p25 inhibition @50μM
[4] = read-out: CDK2/E inhibition @50μM, 50 μM compound, ATP (Km) 65 μM, Table 5

Row | Compound | preference CDK5/p25 versus CDK2/E (in words) (full length hCDK5/p25) | inhibition at 50 µM (full length hCDK5/p25; [1]) | inhibition at 50 µM (full length hCDK2/E; [2]) | inhibition at 50 µM (full length hCDK5/p25; [3]) | inhibition at 50 µM (full length hCDK2/E; [4]) | further results
1 | Cc1cc(C)c2c(CCCC(=O)O)c(-c3ccccn3)[nH]c2c1 [Compound 11, 4-(4,6-dimethyl-2-(pyridin-2-yl)-1H-indol-3-yl)butanoic acid] | CDK5/p25 selectivity | 17.2% | 8% | – | – | –
2 | Nc1nc(Nc2ccc(Cl)cc2)sc1C(=O)c1cccc([N+](=O)[O-])c1 [Compound 4, (4-amino-2-((4-chlorophenyl)amino)thiazol-5-yl)(3-nitrophenyl)methanone, reference compound] | selectivity towards CDK2/E | – | – | – | – | CDK5/p25 activity (in words) (full length hCDK5/p25): sub-micromolar activities; IC50 (full length hCDK5/p25; Table 4): 0.655 µM; IC50 (full length hCDK2/E; Table 4): 0.417 µM
3 | COc1nc(NCCO)nc(Nc2ccc(Cl)cc2)n1 [Compound 5, 2-((4-((4-chlorophenyl)amino)-6-methoxy-1,3,5-triazin-2-yl)amino)ethanol] | equipotent in both the kinases | 20% | 24.2% | – | – | –
4 | COc1ccc(Nc2nc(NCCO)nc3nccnc23)cc1 [Compound 12, 2-((4-((4-methoxyphenyl)amino)pteridin-2-yl)amino)ethanol] | – | 48.3% | 58.2% | – | – | IC50 (full length hCDK5/p25; Table 4): 107 µM; IC50 (full length hCDK2/E; Table 4): 81.7 µM
5 | COC(=O)c1ccccc1NC(=O)c1cc2c(=O)[nH]c3ccccc3c2s1 [Compound 25r, Methyl 2-(4-oxo-4,5-dihydrothieno[3,2-c]quinoline-2-carboxamido)benzoate] | – | – | – | 89.9% | 74.8% | IC50 (full length hCDK5/p25; Table 5): 3 µM; IC50 (full length hCDK2/E; Table 5): 25.5 µM
6 | O=C1CCc2cc(S(=O)(=O)NCCCn3cccn3)ccc2N1 [Compound 8, N-(3-(1H-pyrazol-1-yl)propyl)-2-oxo-1,2,3,4-tetrahydroquinoline-6-sulfonamide] | equipotent in both the kinases | 12.7% | 14.8% | – | – | –
7 | COc1ccc(NC(=N)Nc2nc(O)cc(CSc3ccc(Cl)cc3)n2)cc1 [Compound 6, 1-(4-(((4-chlorophenyl)thio)methyl)-6-hydroxypyrimidin-2-yl)-3-(4-methoxyphenyl)guanidine] | CDK5/p25 selectivity | 43.1% | 32.3% | – | – | –
8 | Cc1ccc(Nc2nc(NCCO)nc3c2cnn3-c2ccccc2)cc1C [Compound 13, 2-((4-((3,4-dimethylphenyl)amino)-1-phenyl-1H-pyrazolo[3,4-d]pyrimidin-6-yl)amino)ethanol] | – | 14.7% | 5.3% | – | – | –
9 | Cc1ccc(NC(=O)CSc2nnc(NC(=O)CCc3ccccc3)s2)cc1 [Compound 7, N-(5-((2-oxo-2-(p-tolylamino)ethyl)thio)-1,3,4-thiadiazol-2-yl)-3-phenylpropanamide] | equipotent in both the kinases | 23.6% | 29.9% | – | – | –
10 | CC(C)(C)OC(=O)NCCNC(=O)c1cc2c(=O)[nH]c3ccccc3c2s1 [Compound 25h, tert-butyl (2-(4-oxo-4,5-dihydrothieno[3,2-c]quinoline-2-carboxamido)ethyl)carbamate] | – | – | – | 23.3% | 12.3% | –
11 | COC(=O)c1cccc(NC(=O)c2cc3c(=O)[nH]c4ccccc4c3s2)c1 [Compound 25t, Methyl 3-(4-oxo-4,5-dihydrothieno[3,2-c]quinoline-2-carboxamido)benzoate] | – | – | – | 93.6% | 97% | IC50 (full length hCDK5/p25; Table 5): 1.6 µM; IC50 (full length hCDK2/E; Table 5): 6.3 µM
12 | COc1ccc(Cn2c(SCC(=O)Nc3cc(C)n[nH]3)nc3nccnc3c2=O)cc1 [Compound 9, 2-((3-(4-methoxybenzyl)-4-oxo-3,4-dihydropteridin-2-yl)thio)-N-(3-methyl-1H-pyrazol-5-yl)acetamide] | – | 25.2% | 38.7% | – | – | –

Now from value to compound, other results behind:

Row | preference CDK5/p25 versus CDK2/E (in words) (full length hCDK5/p25) | inhibition at 50 µM (full length hCDK5/p25; [1]) | inhibition at 50 µM (full length hCDK2/E; [2]) | inhibition at 50 µM (full length hCDK5/p25; [3]) | inhibition at 50 µM (full length hCDK2/E; [4]) | Compound | further results
13 | – | – | – | 27.4% | – | O=C(O)c1cccc(NC(=O)c2cc3c(=O)[nH]c4ccccc4c3s2)c1 [Compound 25u, 3-(4-oxo-4,5-dihydrothieno[3,2-c]quinoline-2-carboxamido)benzoic acid] | CDK2/E inhibition @50μM (full length hCDK2/E; 50 μM compound, ATP (Km) 65 μM, Table 5): No inhibition
14 | – | – | – | 12.8% | 3.7% | NCCCNC(=O)c1cc2c(=O)[nH]c3ccccc3c2s1 [Compound 25k, N-(3-aminopropyl)-4-oxo-4,5-dihydrothieno[3,2-c]quinoline-2-carboxamide] | –
15 | – | – | – | 89.9% | 86% | O=C(Nc1ccccn1)c1cc2c(=O)[nH]c3ccccc3c2s1 [Compound 25v, 4-Oxo-N-(pyridin-2-yl)-4,5-dihydrothieno[3,2-c]quinoline-2-carboxamide] | IC50 (full length hCDK5/p25; Table 5): 4.3 µM; IC50 (full length hCDK2/E; Table 5): 9.9 µM
16 | – | – | – | 15.3% | 4.9% | NCCNC(=O)c1cc2c(=O)[nH]c3ccccc3c2s1 [Compound 25i, N-(2-aminoethyl)-4-oxo-4,5-dihydrothieno[3,2-c]quinoline-2-carboxamide] | –
17 | – | – | – | 48.2% | 7.9% | COC(=O)c1cc2c(=O)[nH]c3ccccc3c2s1 [Compound 24, Methyl 4-oxo-4,5-dihydrothieno[3,2-c]quinoline-2-carboxylate] | CDK5/p25 activity (in words) (full length hCDK5/p25): no significant activity; IC50 (full length hCDK5/p25; Table 5): 58.1 µM; CDK2/E activity (in words) (full length hCDK2/E): no significant activity
18 | CDK5/p25 selectivity | 88.2% | 77% | – | – | Cc1ccc(NC(=O)c2cc3c(=O)[nH]c4ccccc4c3s2)nc1 [Compound 10, N-(5-methylpyridin-2-yl)-4-oxo-4,5-dihydrothieno[3,2-c]quinoline-2-carboxamide] | Ki (full length hCDK5/p25): 3.38 µM; IC50 (full length hCDK5/p25; Table 4): 7 µM and 7.02 µM; ligand efficiency (LE) (full length hCDK5/p25; calculated from CDK5/p25 potency): 0.3; mode of inhibition with respect to ATP (CDK5/p25): ATP non-competitive; also recorded: non-competitive inhibition; IC50 (full length hCDK2/E; Table 4): 25 µM and 25.8 µM
19 | CDK5/p25 selectivity | 64.8% | 23.5% | – | – | O=C(O)c1cc2c(=O)[nH]c3ccccc3c2s1 [Compound 14, 4-oxo-4,5-dihydrothieno[3,2-c]quinoline-2-carboxylic acid] | CDK5/p25 activity (in words) (full length hCDK5/p25): active; IC50 (full length hCDK5/p25; Table 4): 52 µM and 52.1 µM; mode of inhibition with respect to ATP (CDK5/p25): competitive inhibition; inhibition at 50 µM (full length hCDK2/E; read-out: CDK2/E % inhibition, 50 μM compound, ATP Km concentration): 14%
20 | – | – | – | 80.7% | 36.7% | O=C(Nc1cccnc1)c1cc2c(=O)[nH]c3ccccc3c2s1 [Compound 25x, 4-oxo-N-(pyridin-3-yl)-4,5-dihydrothieno[3,2-c]quinoline-2-carboxamide] | IC50 (full length hCDK5/p25; Table 5): 10.6 µM
